From patent US10077436B2, “Beta-glucosidase enzymes for increased biomass saccharification” (Edeniq, Inc., priority 2013, dated 2018)

Biological target: T1, Aspergillus niger beta-glucosidase, wild type, yEdQ745-BG (CAB75696.1, SEQ ID NO:2) (Aspergillus niger, UniProt Q9P8F4)
T1 construct: strain yEdQ745
T1 sequence (Q9P8F4 20-860): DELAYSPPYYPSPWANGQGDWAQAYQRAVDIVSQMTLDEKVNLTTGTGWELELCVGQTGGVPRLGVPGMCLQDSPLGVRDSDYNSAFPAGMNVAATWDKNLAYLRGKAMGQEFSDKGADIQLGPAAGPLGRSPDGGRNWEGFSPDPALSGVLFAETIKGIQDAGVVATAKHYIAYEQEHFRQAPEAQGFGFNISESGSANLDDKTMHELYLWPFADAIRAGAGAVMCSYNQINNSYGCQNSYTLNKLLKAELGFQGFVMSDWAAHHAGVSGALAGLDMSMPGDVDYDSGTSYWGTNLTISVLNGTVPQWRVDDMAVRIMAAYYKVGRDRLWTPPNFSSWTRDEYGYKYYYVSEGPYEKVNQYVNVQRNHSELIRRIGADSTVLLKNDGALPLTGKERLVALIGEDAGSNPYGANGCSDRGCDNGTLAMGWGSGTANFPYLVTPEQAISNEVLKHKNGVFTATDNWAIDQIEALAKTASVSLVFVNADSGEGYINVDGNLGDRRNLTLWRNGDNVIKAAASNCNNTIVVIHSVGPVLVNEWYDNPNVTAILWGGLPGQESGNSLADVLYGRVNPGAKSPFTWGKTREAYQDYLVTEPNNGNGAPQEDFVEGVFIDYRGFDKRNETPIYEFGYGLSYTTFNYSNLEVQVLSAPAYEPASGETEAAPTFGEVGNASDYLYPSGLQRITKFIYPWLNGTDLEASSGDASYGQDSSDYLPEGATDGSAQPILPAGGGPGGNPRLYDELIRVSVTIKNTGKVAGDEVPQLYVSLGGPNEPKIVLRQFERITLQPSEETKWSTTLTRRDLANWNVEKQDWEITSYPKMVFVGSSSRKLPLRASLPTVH
Assay: BG kinetics, pNPG hydrolysis assay with glucose as competitive inhibitor, yEdQ745-BG
Type: biochemical
Description: Accordingly, in some embodiments, the unmodified form of the beta-glucosidase is a wild-type or a naturally occurring beta-glucosidase, such as, for example, a fungal beta-glucosidase. The full nucleic acid and amino acid sequence for numerous fungal beta-glucosidases are available. The amino acid sequence of A. niger beta-glucosidase is provided as SEQ ID NO:2. Thus, in some embodiments, the unmodified beta-glucosidase is from an Aspergillus species. In some embodiments, the unmodified beta-glucosidase is from a Trichoderma species.
The beta-glucosidase (BG) gene from Aspergillus niger (Accession #CAB75696.1) was integrated into the TR3 yeast background at the T4U3 genomic site.
The BG-expressing strains were subsequently used in corn mash and corn stover simultaneous saccharification and fermentation (SSF) studies using flask scale and pilot plant fermentations. […]
BG activity assay using pNPG is one of the two commonly used standard assays to measure BG activity, which utilizes hydrolysis of p-nitrophenyl-β-D-glucopyranoside (pNPG) by BG into a yellow colored product, p-nitrophenol (pNP), that has a strong absorbance at 405 nm. […] The reaction was then terminated by adding 100 μL of 0.25 M sodium carbonate, and the amount of pNP produced was determined by measuring absorbance at 405 nm using a predetermined calibration curve. […]

With `OC[C@H]1OC(O)[C@H](O)[C@@H](O)[C@@H]1O` (some centres unmarked) [glucose] as the molecule, how does the Ki read?
The Ki was 2130 ± 180 µM.

And the Km/Ki (inhibitor influence, Km for pNPG / Ki for glucose, pH 5.0, 50° C.)?
The Km/Ki was 0.30.
